{
  "source": "patent US9315544B2",
  "about": "“Method of treating eosinophilia by administering an immunomodulating peptide” (National Tsing Hua University, priority 2012, dated 2016)",
  "key": {"IL-17A/F": {"tested_on": "IL-17A/F", "test": "Cytokine ELISA of lung protein extract (IL-17A/F)", "assay_type": "in vivo, BALB/c mouse", "details": "eIN+mIT, mIT+eIN and eIN+mIT+eIN groups", "excerpt": "(§1) FIG. 4 illustrates experimental design. All groups except control group were immunized with mite crude extract allergen on days 1 and 8, then mite crude extract allergen intratracheally on day 15 in all mite treated group, BALB/c mouse were divided into six groups (1) control group (PBS), (2) mites delivered intratracheally (mIT, mite on day 15) alone, (3) CMP intranasal (eIN, CMP on days 1 to 22) alone, (4) preventive-treatment group (eIN+mIT, CMP on days 1 to 14, mite on day 15) (5) therapy-treatment group (mIT+eIN, mite on day 15, CMP on days 15 to 22), and (6) preventive- and therapeutic-treatment group (eIN+mIT+eIN, CMP on days 1 to 22, mite on day 15).\nFIG. 9 illustrates inhibitory effect of CMP on lung protein extract. Lung protein extracts from different groups of mouse were assayed for the indicated cytokines. Data represent one of three independent experiments. Levels of CCL-11, IL-5, IL-13 and IL-17A/F levels in lung protein extracts from mouse from treatment groups were measured by Enzyme-linked immunosorbent assay (ELISA). Each result was expressed as the mean±S.D., n=4. **, P<0.01, ***, P<0.001. […]\nLevels of cytokines from lung protein extract were measured by ELISA. […] The microplates were read at 450 nm with an ELISA reader (Thermo Labsystems, Waltham, Mass., USA). […]"}, "[1]": {"tested_on": "mite-induced airway hyperresponsiveness", "test": "Mite-induced airway hyperresponsiveness, pause enhancement (Penh) by whole-body plethysmography", "assay_type": "in vivo, BALB/c mouse", "excerpt": "as §1\nFIG. 5 illustrates inhibitory effect of CMP on mite-induced airway hyperresponsiveness. The effect of methacholine (MCh) on pause enhancement (Penh) in mouse exposed to CMP in the presence and absence of mite proteins. Penh was measured in all six treatment groups after stimulation with 6.25, 12.5, or 25 mg/ml MCh for 1 min. The values were presented as a ratio with respect to the baseline Penh (before MCh stimulation) for each group. Each result was expressed as the mean±S.D., n=4. **, P<0.01. ***, P<0.001. […]\nAirway responsiveness was measured in mouse on day 22 (i.e., 1 hour after the last challenge) in conscious, spontaneously breathing mouse using a whole-body plethysmography system (Buxco, Wilmington, N.C., USA) as described before (Maeda T, et al, Eur J Biochem 2002, 269, 307-316). […] The chamber-pressure-time wave was continuously measured via a transducer connected to a computer data acquisition system. After a baseline Penh reading for >3 min, mice were serially exposed to increasing concentrations of nebulized methacholine (MCh) (0, 6.25, 12.5, and 25 mg/ml; Sigma, St Louis, Mo., USA) in PBS for 1 min by inhalation. Penh values, which are measured as changes in enhanced pause, tidal volume, and breathing frequency (breaths/minute) for the first 3 min after the end of MCh nebulization, were averaged and used to compare responses among all six-treatment groups. […]"}},
  "data": [
    {"sequence": "NYRWRCKNQN (CMP)", "values": [
      {"measurement": "IL-17A/F levels in lung protein extract compared with mIT group", "setting": "IL-17A/F", "value": "much lower"},
      {"measurement": "AHR, response to increasing dose of inhaled methacholine", "setting": "[1]; CMP intranasal, eIN+mIT, mIT+eIN and eIN+mIT+eIN groups", "value": "significantly decrease"},
      {"measurement": "Penh stimulation compared with mite group", "setting": "[1]; eIN+mIT and mIT+eIN groups, 25 mg/ml MCh", "value": "lower stimulation"},
      {"measurement": "Penh/baseline ratio change of mIT group compared with CMP group", "setting": "[1]; mIT vs eIN+mIT+eIN group, 12.5 and 25 mg/ml MCh", "value": "much higher"}
    ]}
  ]
}
